Data as given in PMC11206525, “Structural Design, Anticancer Evaluation, and Molecular Docking of Newly Synthesized Ni(II) Complexes with ONS-Donor Dithiocarbazate Ligands” (Molecules, 2024).
Read-outs that look alike come from different tables or passages of the source.

Key:
[1] = system: non-malignant breast epithelial cell line MCF-10A; assay: MTT cytotoxicity assay, non-malignant MCF-10A cells; type: cell-based, human
Experimental: (§1) The measurement was performed using the MTT assay in cultures treated with increasing concentrations.
(§2) The effect of the compounds applied to breast cancer MCF-7 cells and breast epithelial MCF-10A cells was evaluated by measuring 3-(4,5-dimethylthiazol-2-yl)-2,5-diphenyl tetrazolium bromide (MTT) (Invitrogen, Waltham, MA, USA). All compounds were diluted in dimethylsulfoxide (DMSO) with a final DMSO concentration of 0.01% (0.01 mL/100 mL × 100 = 0.01% means 0.01 mL of DMSO to 99.99 mL of water) in all groups and untreated controls. Cells were seeded in 96-well plates at a density of 5 × 10^3 cells per well and incubated with compounds diluted in serial concentrations ranging from 0.29 µM to 150 µM. After 24, 48, and 72 h at 37 °C and 5% CO2, 10 µL of MTT (5 mg/mL) was added to each well and incubated for 4 h at 37 °C. The supernatant was then removed, and 100 µL/well of DMSO was added to dissolve any deposited formazan. The optical density was measured at 570 nm using a microplate reader (DR-200B-NM_Kasuaki, Tokyo, Japan).

[2] = system: human breast cancer cell line MCF-7; assay: MTT cytotoxicity assay, breast cancer MCF-7 cells; type: cell-based; conditions: MCF-7, MTT
Experimental: as §1, §2

[3] = system: the cells tested; parameters: method as in doi:10.1016/j.ica.2017.03.027; conditions: related work; cited from earlier work
[4] = read-out: IC50 (Inhibitory Concentration 50%) ± SD at 24 h, 24 h
[5] = read-out: IC50 (Inhibitory Concentration 50%) ± SD at 48 h, 48 h

Work on `C=CCSC(=S)N/N=C(\C)c1ccccc1O` [H2L^1, S-Allyl-2-(2-hydroxyphenyl-ethylidene)dithiocarbazato] yielded a melting point of 116 °C, an IC50 ([1]; Homo sapiens, read-out: IC50 (Inhibitory Concentration 50%) ± SD at 24 h, 24 h) of 65.44 ± 0.034 µM and an IC50 ([1]; Homo sapiens, read-out: IC50 (Inhibitory Concentration 50%) ± SD at 48 h, 48 h) of 62.86 ± 0.013 µM. It also gave an IC50 ([1]; Homo sapiens, read-out: IC50 (Inhibitory Concentration 50%) ± SD at 72 h, 72 h) of 62.86 ± 0.025 µM, an IC50 ([2]; Homo sapiens, MCF7, read-out: IC50 (Inhibitory Concentration 50%) ± SD at 24 h, 24 h) of 88.85 ± 0.097 µM and an IC50 ([2]; Homo sapiens, MCF7, read-out: IC50 (Inhibitory Concentration 50%) ± SD at 48 h, 48 h) of 87.73 ± 0.042 µM. The IC50 ([2]; Homo sapiens, MCF7, read-out: IC50 (Inhibitory Concentration 50%) ± SD at 72 h, 72 h) was 28.49 ± 0.023 µM.
For `O.O.O.O.O.O.[Cl][Ni][Cl]` [NiCl2⋅6H2O], the “effect on cell proliferation or cell viability” value [3] is given as “no substantial effect”.
Molecule `C=CCSC1=NN=C(C)c2ccccc2[O][Ni]([P](c2ccccc2)(c2ccccc2)c2ccccc2)[S]1` [(1), [Ni(L^1)PPh3]] has an IC50 [1, 4] of 25.47 ± 0.031 µM, an IC50 [1, 5] of 28.43 ± 0.021 µM and an IC50 [2, 4] of 12.82 ± 0.029 µM. The IC50 [2, 5] was 22.71 ± 0.016 µM and the IC50 ([2]; read-out: IC50 (Inhibitory Concentration 50%) ± SD at 72 h, 72 h) was 18.07 ± 0.017 µM.
`C/C(=N\NC(=S)SCc1ccccc1)c1ccccc1O` [H2L^2, S-Benzyl-2-(2-hydroxyphenyl-ethylidene)dithiocarbazato] gave a melting point of 145 °C.
